Series [1] deals with DLD-1. In words: Induction of apoptosis in human DLD1 cells assessed as activation of caspases by HTS assay. The series is classed as functional, cell-based.
The test system of series [2] is DLD-1. In words: Inhibition of tumor growth in BALB/c nude mouse implanted with DLD1 cells at 50 mg/kg, ip, qd. The class given is functional. The settings on record: DLD-1, ip.
The subject of series [3] is DLD-1. In words: Activity against DNA laddering in DLD1 cells at 1 uM after 48 hrs. The series is classed as functional, cell-based. Conditions: Homo sapiens.
The subject of series [4] is DLD-1. The series can be described thus: Growth inhibition of human DLD1 cells. The class given is functional.
The test system of series [5] is DLD-1. In words: Inhibition of tumor growth in BALB/c nude mouse implanted with DLD1 cells at 100 mg/kg, ip, qd. The class given is functional. Conditions: DLD-1, ip.
For series [6], the system named is DLD-1. The series can be described thus: Inhibition of tumor growth in BALB/c nude mouse implanted with DLD1 cells at 50 mg/kg, ip, bid. The series is classed as functional. Conditions: DLD-1, ip.
Series [7] has as its system DLD-1. In words: Activity against caspase-mediated PARP cleavage in human DLD1 cells at 1 uM after 48 hrs by Western blot analysis. The class given is functional, cell-based. (In general: In western blotting, separated proteins are transferred to a membrane and probed.)
Series [8] is described as follows: Solubility of the compound. The class given is physicochemical.

The values below come from ChEMBL document CHEMBL1146917, “Discovery and structure-activity relationship of 2-phenyl-oxazole-4-carboxamide derivatives as potent apoptosis inducers” (Bioorg Med Chem Lett, 2006).

In brackets after ≈: the same amount, converted by molar mass. Activity calls are given as the source filed them. The rule behind the calls is not given here.

A word on the EC50: it is the concentration needed to bring the measured effect to its halfway point. As to `COC1CCN(C(=O)c2coc(-c3ccc(CNC(=O)Cc4ccccc4)cc3)n2)CC1`, the EC50 in series [1] came out at 5230 nM. Still for that read-out and setting: as for `O=C(Cc1ccccc1)NCc1ccc(-c2nc(C(=O)N3CC=CCC3)co2)cc1`, the figure is 108 nM; as for `C[C@@H]1CC[C@H](C)N1C(=O)c1coc(-c2ccc(CNC(=O)Cc3ccccc3)cc2)n1`, 34 nM; as for `O=C(Cc1cccc(F)c1)NCc1ccc(-c2nc(C(=O)N3CCCCC3)co2)cc1`, 72 nM. Consider `O=C(Cc1ccccc1F)NCc1ccc(-c2nc(C(=O)N3CCCCC3)co2)cc1`, for which the EC50 in series [1] turned out to be 65 nM. `O=C(Cc1ccccc1)NCc1ccc(-c2nc(C(=O)N3CCC(F)CC3)co2)cc1`: the EC50 in series [1] came to 304 nM.

Take `O=C(Cc1ccccc1)NCc1ccc(-c2nc(C(=O)N3CCCCCC3)co2)cc1`: the EC50 in series [1] came to 33 nM.

`O=C(Cc1ccc(O)cc1)NCc1ccc(-c2nc(C(=O)N3CCCCC3)co2)cc1`: the EC50 in series [1] came to 73 nM. Same read-out and setting: as for `CC1CCN(C(=O)c2coc(-c3ccc(CNC(=O)Cc4ccccc4)cc3)n2)CC1`, the figure is 258 nM. As to `O=C(Cc1ccccc1)NCc1ccc(-c2nc(C(=O)N3CC4CC4C3)co2)cc1` (stereo unspecified), the EC50 in series [1] is 318 nM. Same read-out and setting: as for `O=C(Cc1ccccc1)NCc1ccc(-c2nc(C(=O)N3CCCC(Cl)C3)co2)cc1` (stereo unspecified), the figure is 119 nM; as for `O=C(Cc1ccc(F)cc1)NCc1ccc(-c2nc(C(=O)N3CCCCC3)co2)cc1`, 233 nM.

For the molecule `O=C(Cc1ccc(Cl)cc1)NCc1ccc(-c2nc(C(=O)N3CCCCC3)co2)cc1`, the EC50 in series [1] was found to be 274 nM. The same measure, in the same setting: the value for `O=C1CCN(C(=O)c2coc(-c3ccc(CNC(=O)Cc4ccccc4)cc3)n2)CC1` was 115 nM; that for `O=C(Cc1ccccc1)NCc1ccc(-c2nc(C(=O)N3CCCCCCC3)co2)cc1` was 108 nM. For the molecule `O=C(Cc1cccc(Cl)c1)NCc1ccc(-c2nc(C(=O)N3CCCCC3)co2)cc1`, the 50% effective concentration (EC50) in series [1] is 533 nM. The same measure, in the same setting: the value for `O=C1CCCN(C(=O)c2coc(-c3ccc(CNC(=O)Cc4ccccc4)cc3)n2)C1` was 235 nM; that for `COC1CCCN(C(=O)c2coc(-c3ccc(CNC(=O)Cc4ccccc4)cc3)n2)C1` (stereo unspecified) was 259 nM. As usually defined, the inhibition in vivo is the drop in the measured response relative to a control, in per cent. A word on the GI50: it is the concentration that inhibits growth by half. Low readings indicate greater sensitivity of the cells, high ones lower sensitivity of the cells. The term solubility denotes the dissolved amount per volume that the medium holds. Regarding `O=C(Cc1ccc(OC(F)(F)F)cc1)NCc1ccc(-c2nc(C(=O)N3CCCCC3)co2)cc1`, the inhibition in vivo at 50 mg/kg in series [2] is 21%; in series [6] it was 63%. The outcome in series [3] and in series [7] was Active. Besides, the EC50 in series [1] amounted to 270 nM. Besides, the GI50 in series [4] turned out to be 229 nM. Moreover, in series [5], the inhibition in vivo at 100 mg/kg is 38%. The amount in solution in series [8] (solubility) came to 44 µM (≈ 21.4 µg/mL). `O=C(Cc1cccc(O)c1)NCc1ccc(-c2nc(C(=O)N3CCCCC3)co2)cc1`: the EC50 in series [1] amounted to 139 nM. Same read-out and setting: the value for `O=C(Cc1ccccc1)NCc1ccc(-c2nc(C(=O)N3CCCC(O)C3)co2)cc1` (stereo unspecified) was 196 nM; that for `O=C(Cc1ccccc1)NCc1ccc(-c2nc(C(=O)N3CCCC3)co2)cc1` was 553 nM; that for `O=C(Cc1ccccc1)NCc1ccc(-c2nc(C(=O)N3CCC(O)CC3)co2)cc1` was 150 nM. On to `O=C(Cc1ccccc1)NCc1ccc(-c2nc(C(=O)N3CCC(CO)CC3)co2)cc1`, for which the 50% effective concentration (EC50) in series [1] amounted to 196 nM. For the molecule `O=C(Cc1cccs1)NCc1ccc(-c2nc(C(=O)N3CCCCC3)co2)cc1`, the EC50 in series [1] turned out to be 59 nM. The molecule further showed a GI50 in series [4] of 75 nM. Also, in series [8], the concentration in solution (solubility) was 29 µM (≈ 11.9 µg/mL). As to `O=C(Cc1ccccc1O)NCc1ccc(-c2nc(C(=O)N3CCCCC3)co2)cc1`, the EC50 in series [1] was found to be 1010 nM. Still for that read-out and setting: as for `Cc1ccc(CC(=O)NCc2ccc(-c3nc(C(=O)N4CCCCC4)co3)cc2)cc1`, the figure is 142 nM. As to `CC1CCCN(C(=O)c2coc(-c3ccc(CNC(=O)Cc4ccccc4)cc3)n2)C1` (stereo unspecified), in series [1], the EC50 amounted to 193 nM. Consider `O=C(Cc1ccccc1)NCc1ccc(-c2nc(C(=O)N3CCCC(F)C3)co2)cc1` (stereo unspecified), for which the EC50 in series [1] was found to be 85 nM. On to `O=C(Cc1ccccc1)NCc1ccc(-c2nc(C(=O)N3CCCCC3)co2)cc1`, for which, in series [1], the EC50 amounted to 65 nM. Moreover, it took 258 nM to inhibit growth in series [4] by half (GI50). In series [8], this molecule showed a solubility of 47 µM (≈ 19 µg/mL).

For `O=C(Cc1ccccc1)NCc1ccc(-c2nc(C(=O)N3CCC(Cl)CC3)co2)cc1`, in series [1], the EC50 amounted to 492 nM.

Regarding `O=C(Cc1ccccc1)NCc1ccc(-c2nc(C(=O)N3CCCC(F)(F)C3)co2)cc1`, the EC50 in series [1] turned out to be 20 nM. In series [4], this molecule came in with a GI50 of 15 nM. Moreover, the solubility in series [8] is less than 10 µM. With `O=C(Cc1ccccc1)NCc1ccc(-c2nc(C(=O)N3CCC(F)(F)CC3)co2)cc1`, the EC50 in series [1] amounted to 979 nM.
